The values below come from ChEMBL document CHEMBL1629460, “Image-based high-throughput drug screening targeting the intracellular stage of Trypanosoma cruzi, the agent of Chagas' disease” (Antimicrob Agents Chemother, 2010).

Broadly, the EC50 is the concentration needed to bring the measured effect to its halfway point.

Molecules are shown by their SMILES.

Experiment [1] has as its system Trypanosoma cruzi. In words: Antitrypanosomal activity against Trypanosoma cruzi CA-I/72 infected in BESM cells measured after 88 hrs postinfection by HTS assay. Type of experiment: functional, organism-based. The note with it: CA-I/72, BESM.
Experiment [2] deals with Trypanosoma cruzi. In words: Antitrypanosomal activity against Trypanosoma cruzi Sylvio-X10/7 infected in BESM cells measured after 88 hrs postinfection by HTS assay. The experiment is classed as functional, organism-based. The note with it: Sylvio-X10/7, BESM.
Experiment [3] concerns Trypanosoma cruzi. In words: Antitrypanosomal activity against Trypanosoma cruzi PSD-I infected in BESM cells measured after 88 hrs postinfection by HTS assay. The experiment is classed as functional, organism-based.
Experiment [4] is described as follows: Cytotoxicity against BESM cells after 88 hrs by HTS assay. The experiment is classed as ADME, cell-based. The settings on record: Bos taurus.
The subject of experiment [5] is Trypanosoma cruzi. Put plainly: Antitrypanosomal activity against Trypanosoma cruzi amastigotes infected in BESM cells measured after 88 hrs postinfection by HTS assay. Type of experiment: functional, organism-based.
Experiment [6] can be described thus: Selectivity window, ratio of EC50 for BESM cells to EC50 for Trypanosoma cruzi amastigotes infected in BESM cells. Also noted: reference not given here.

On to `CC[C@@H]([C@H](C)O)n1ncn(-c2ccc(N3CCN(c4ccc(OC[C@@H]5CO[C@@](Cn6cncn6)(c6ccc(F)cc6F)C5)cc4)CC3)cc2)c1=O` [POSACONAZOLE], for which the EC50 was 0.2 µM in experiment [1], 0.08 µM in experiment [2], 0.13 µM in experiment [3] and more than 2 µM in experiment [4].

Turning to `CN1CCN(C(=O)N[C@@H](Cc2ccccc2)C(=O)N[C@H](/C=C/S(=O)(=O)c2ccccc2)CCc2ccccc2)CC1` [K-777], the EC50 in experiment [1] was 4.2 µM; in experiment [2], 3 µM; in experiment [3], 3 µM; in experiment [4], more than 20 µM.

`CCc1nn(CCCN2CCN(c3cccc(Cl)c3)CC2)c(=O)n1CCOc1ccccc1` [NEFAZODONE]: the results for the 50% effective concentration (EC50) in experiment [4] and in experiment [5] were 15 µM and 8 µM, respectively. For the same molecule, in experiment [6], the “Ratio EC50” value is 1.9.

Take `NC(=O)N/N=C/c1ccc([N+](=O)[O-])o1` [NITROFURAZONE]: the EC50 is more than 50 µM in experiment [4] and 8 µM in experiment [5]. Moreover, the “Ratio EC50” value in experiment [6] is given as more than 6.3.

Regarding `COc1cc(N)[nH]c2nc(-c3ccc(F)cc3)c(-c3ccncc3)c1-2`, the EC50 in experiment [4] was more than 50 µM; in experiment [5] it was 5 µM. The “Ratio EC50” value in experiment [6] is more than 10.

For `COc1ccc(CN2CCN(C(c3ccc(F)cc3)c3ccc(F)cc3)CC2)c(OC)c1OC` [LOMERIZINE], the figures for the EC50 in experiment [4] and in experiment [5] were 22 µM and 9 µM, respectively. The “Ratio EC50” value in experiment [6] is 2.4.

In the case of `C=C(C)[C@H]1CN[C@H](C(=O)O)[C@H]1CC(=O)O` [KAINIC ACID], the figures for the EC50 in experiment [4] and in experiment [5] were 13 µM and 3 µM, respectively. Also, the “Ratio EC50” value in experiment [6] is 4.3.

For `O=C(CCCN1CCC(O)(c2ccc(Cl)cc2)CC1)c1ccc(F)cc1` [HALOPERIDOL], the EC50 in experiment [4] is 33 µM; in experiment [5], 7 µM. The “Ratio EC50” value in experiment [6] was found to be 4.7.

As to `c1ccc(Cn2ccnc2)cc1` [BENZYLIMIDAZOLE], the results for the EC50 in experiment [4] and in experiment [5] were more than 50 µM and 35 µM, respectively. Further, in experiment [6], the “Ratio EC50” value is recorded as more than 1.4.

`Nc1c2c(nc3ccccc13)CCCC2` [TACRINE]: the EC50 is more than 50 µM in experiment [4] and 24 µM in experiment [5]. Also, the “Ratio EC50” value in experiment [6] is reported as more than 2.1.

For `OCCN1CCN(CCCN2c3ccccc3Sc3ccc(C(F)(F)F)cc32)CC1` [FLUPHENAZINE], the EC50 in experiment [4] is 21 µM; in experiment [5] it was 4 µM. For the same molecule, the “Ratio EC50” value in experiment [6] turned out to be 5.3.

Consider `Cc1ccc(/N=C/N(C)/C=N/c2ccc(C)cc2C)c(C)c1` [AMITRAZ], for which the concentration giving a half-maximal response (EC50) in experiment [4] was 33 µM; in experiment [5], 16 µM. In addition, the “Ratio EC50” value in experiment [6] was found to be 2.1.

As for `CN1[C@@H]2CC[C@H]1C[C@@H](OC(c1ccccc1)c1ccccc1)C2` [BENZTROPINE], the EC50 in experiment [4] came out at 46 µM; in experiment [5], 17 µM. In addition, in experiment [6], the “Ratio EC50” value came to 2.7.

With `CC1CS(=O)(=O)CCN1/N=C/c1ccc([N+](=O)[O-])o1` (stereo not drawn) [NIFURTIMOX], the EC50 in experiment [1] is 1.2 µM; in experiment [2], 0.7 µM; in experiment [3] it was 2.1 µM; in experiment [4], more than 10 µM.

With `COc1cc2nc(N3CCN(C(=O)c4ccco4)CC3)nc(N)c2cc1OC` [PRAZOSIN], the EC50 in experiment [4] amounted to 16 µM; in experiment [5], 12 µM. The “Ratio EC50” value in experiment [6] was determined as 1.3.
